Data: patent US5374641A, “N-(3-pyridylalkyl)sulfonamide compounds which have useful pharmaceutical activity” (Terumo Kabushiki Kaisha, priority 1991, dated 1994)

How the values were obtained:
[1] = test system: platelet aggregation, induced by U-46619; assay: Test Examples 4: Platelet aggregation inhibiting activity (guinea pig PRP, U-46619); type: cell-based; conditions: Cavia porcellus, 320 nM U-46619, 37° C., read-out: Platelet aggregation activity IC50 (concentration of 50% inhibition of platelet aggregation, induced by U-46619)
Experimental: A blood sample was taken from carotid artery of a guinea pig using a syringe containing 3.8% sodium citrate solution (1/10 volume of the blood to be collected). The blood was centrifuged to obtain platelet riched plasma (PRP: number of platelets, 3×10^5 /μ1).
Two hundred microliters of the PRP and 23.75 µl of physiological saline were placed in a cuvette, which was then set in an aggregometer, followed by heating at 37° C. for two minutes, and then followed by addition of 1.25 µl of the solution of an N-(3-pyridylalkyl)sulfonamide derivative of the present invention in ethanol, for 3-min incubation. Then, U-46619, one of stable PGG2 /H2 derivatives, having strong action inducing platelet aggregation, was added, so that platelet aggregation was measured by an aggregometer [Hematracer VI: manufactured by NIKO Bioscience, K.K.].

thromboxane synthetase [2] = target: T1, thromboxane synthetase (Homo sapiens, UniProt P24557); assay: Test Example 5: Thromboxane synthetase inhibiting activity (human platelet microsomal fraction, RIA); type: biochemical; conditions: PGH2, room temperature, 60 seconds, read-out: Inhibition of thromboxane synthetase IC50
T1 sequence (P24557 1-533): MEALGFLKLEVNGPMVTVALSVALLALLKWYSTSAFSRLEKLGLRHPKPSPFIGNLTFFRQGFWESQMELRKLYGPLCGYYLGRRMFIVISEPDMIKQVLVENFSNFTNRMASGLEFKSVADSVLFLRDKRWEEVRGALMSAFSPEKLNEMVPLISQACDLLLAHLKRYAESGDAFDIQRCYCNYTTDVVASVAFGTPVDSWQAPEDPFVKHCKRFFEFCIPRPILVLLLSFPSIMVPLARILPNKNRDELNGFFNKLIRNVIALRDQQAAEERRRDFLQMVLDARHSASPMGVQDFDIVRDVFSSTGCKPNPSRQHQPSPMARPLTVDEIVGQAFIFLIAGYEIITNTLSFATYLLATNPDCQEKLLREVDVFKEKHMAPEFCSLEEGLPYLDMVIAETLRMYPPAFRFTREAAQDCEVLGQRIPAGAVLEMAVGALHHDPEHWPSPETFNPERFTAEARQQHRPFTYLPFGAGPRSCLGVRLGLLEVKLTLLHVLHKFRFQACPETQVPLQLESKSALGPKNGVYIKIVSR
Experimental: Arachidonic acid (10 nM) was added to 250 μg of microsome of sheep seminal vesicle gland, commercially available from Hilran Biochemical, Co. Ltd., Israel, Lot SM36, which was then reacted at room temperature for 90 seconds to prepare PGH2.
Commercially available human platelet microsomal fraction (200 μg) as a source for thromboxane synthetase was mixed with the PGH2 solution prepared in the same manner as for samples, and reacted together at room temperature for 60 seconds. Diethyl ether/methanol/0.2M citric acid (30:4:1) was added to extract thromboxane A2 generated and its quantity was then analyzed by RIA using a kit manufactured by NEN, Co. LTd.

[3] = test system: platelet aggregation caused by U-46619; assay: Test Examples 6: Platelet aggregation inhibiting activity (human PRP, U-46619); type: cell-based; conditions: for IC50: Platelet, 320 nM U-46619, 37° C., read-out: Inhibitory effect against platelet aggregation caused by U-46619 (IC50); for platelet aggregation inhibiting activity (in words): U-46619
Experimental: A blood sample was collected from human fore arm using a syringe containing 3.8% sodium citrate solution (1/10 volume of the blood to be collected) and centrifuged to obtain platelet rich plasma (PRP; 3×10^5 platelets/μl).
(§1) Platelet aggregation was measured using an aggregometer (Hematracer VI, Niko Bioscience Co., Ltd.) by putting 200 μof the thus prepared PRP and 23.75 μl of physiological saline in a cuvette, setting the cuvette into the aggregometer and incubating the contents at 37° C. for 2 minutes, adding 1.25 μl dimethyl sulfoxide (DMSO) solution of each of the N-(3-pyridylalkyl)sulfonamide derivatives obtained in Examples 35, 36, 37 and 42 and incubating for 3 minutes, and then adding U-46619 (Cayman Chemical Co., Inc.) which is a stable PGG2 /H2 derivative having a strong platelet aggregation causing activity.
In this instance, the term "IC50 " as used herein means concentration of the N-(3-pyridylalkyl)sulfonamide derivative of the present invention required to inhibit 50% of the platelet aggregation when platelet aggregation without introducing the inventive derivative was defined as 100%.

thromboxane synthetase [4] = target: T1, thromboxane synthetase; assay: Test Example 7: Thromboxane synthetase inhibiting activity (human PRP, thrombin, RIA); type: cell-based; conditions: for IC50: 20 U/ml thrombin, RIA, read-out: Inhibition of thromboxane A2 synthesis (IC50); for thromboxane synthetase inhibiting activity (in words): thrombin
Experimental: A blood sample was collected from human fore arm using a syringe containing 3.8% sodium citrate solution (1/10 volume of the blood to be collected) and centrifuged to obtain platelet rich plasma (PRP; 3×10^5 platelets/μl ).
(§2) A 200 μl portion of the thus prepared PRP and 23.75 μl of physiological saline were put in a cuvette, the cuvette was set into the aforementioned aggregometer and the contents in the cuvette were incubated at 37° C. for 2 minutes. Thereafter, 1.25 μ1 dimethyl sulfoxide (DMSO) solution of each of the N-(3-pyridylalkyl)sulfonamide derivatives obtained in Examples 36, 37, 38 and 40 was put in the cuvette and incubated for 3 minutes, followed by the addition of 20 U/ml solution of thrombin to cause platelet aggregation. A portion of the supernatant after aggregation reaction was mixed with diethyl ether/methanol/0.2M citric acid (30:4:1), and the thus formed thromboxane A2 was extracted and its quantity was analyzed by RIA using a kit of Amersham.

thromboxane synthetase [5] = target: T1, thromboxane synthetase; assay: Test Example 2: Thromboxane synthetase inhibiting activity (human PRP, thrombin, RIA); type: cell-based; conditions: for IC50: 20 U/ml thrombin, RIA, read-out: Inhibition of thromboxane A2 synthesis (IC50); for thromboxane synthetase inhibiting activity (in words): thrombin
Experimental: (§3) A blood sample was collected from human fore arm using a syringe containing 3.8% sodium citrate solution (1/10 volume of the blood to be collected) and centrifuged to obtain platelet rich plasma (PRP; 3 ×10^5 platelets/μ1).
as §2, with “200 μ1” for “200 μl”, “23.75 µl” for “23.75 μl”, “Examples 1, 3” for “Examples 36, 37, 38”, “and 7” for “and 40”, “acid (30:4:1 ),” for “acid (30:4:1),”

[6] = test system: platelet aggregation caused by U-46619; assay: Test Example 1: Platelet aggregation inhibiting activity (human PRP, U-46619); type: cell-based; conditions: for IC50: Platelet, 320 nM U-46619, 37° C., read-out: Inhibitory effect against platelet aggregation caused by U-46619 (IC50); for platelet aggregation inhibiting activity (in words): U-46619
Experimental: as §3
as §1, with “200 µl of” for “200 μof”, “23.75 µl” for “23.75 μl”, “1.25 μ1” for “1.25 μl”, “Examples 1, 3, 4, 6” for “Examples 35, 36, 37”, “and 8” for “and 42”, “stable PGG2/ H2” for “stable PGG2 /H2”
In this instance, the term "IC50 "as used herein means concentration of the N-(3-pyridylalkyl)sulfonamide derivative of the present invention required to inhibit 50% of the platelet agglutination when platelet aggregation without introducing the inventive derivative was defined as 100%.

Structure (SMILES) | IC50 [1] [µM] | IC50 (thromboxane synthetase [2]) [µM] | also measured
O=C(O)COc1ccc(CC(NS(=O)(=O)c2ccccc2)c2cccnc2)cc1 (stereo not shown) [Example 13] | 0.84 | 8.9 | –
O=C(O)COc1ccc(C(CNS(=O)(=O)c2ccc(Cl)cc2)Cc2cccnc2)cc1 (stereo not shown) [Example 23, 4-[{1-(4-chlorobenzenesulfonamido)-3-(3-pyridyl)}propan-2-yl]phenoxyaceticacid] | 0.36 | 5.1 | –
C/C(=C\c1ccc(C(CCNS(=O)(=O)c2ccc(Cl)cc2)c2cccnc2)n1C)C(=O)O (stereo not shown) [Example 42] | – | – | IC50 [3]: 43 µM; platelet aggregation inhibiting activity (in words) [3]: markedly high platelet aggregation inhibiting activity
CCOC(=O)/C(C)=C/c1ccc(C(CNS(=O)(=O)c2ccc(Cl)cc2)c2cccnc2)cc1 (stereo not drawn) [Example 40, ethyl 4-[2-(4-chlorobenzenesulfonamido)-1-(3-pyridyl)ethyl]-α-methylcinnamate] | – | – | IC50 (thromboxane synthetase [4]): 1.5 µM; thromboxane synthetase inhibiting activity (in words) (thromboxane synthetase [4]): excellent thromboxane synthetase inhibiting activity
O=C(O)COc1ccc(CC(CNS(=O)(=O)c2ccc(Cl)cc2)c2cccnc2)cc1 (stereo not shown) [Example 26] | 60 | 2.4 | –
O=C(O)COc1ccc(CC(CCNS(=O)(=O)c2ccc(Cl)cc2)c2cccnc2)cc1 (stereo not shown) [Example 33] | 17 | 0.03 | –
O=C(O)COc1ccc(C(CCNS(=O)(=O)c2ccc(Cl)cc2)Cc2cccnc2)cc1 (stereo not shown) [Example 8, 4-[1-(4-chlorobenzenesulfonamido)-4-(3-pyridyl)-3-butyl]phenyloxyacetic acid] | – | – | IC50 (thromboxane synthetase [5]): 4.3 µM
CCOC(=O)Oc1ccc(C(CNS(=O)(=O)c2ccc(Cl)cc2)Cc2cccnc2)cc1 (stereo not shown) [Example 24] | 40 | 2.2 | –
CCOC(=O)COc1ccc(C(NS(=O)(=O)c2ccc(Cl)cc2)c2cccnc2)cc1 (stereo not shown) [Example 1, ethyl 4-[4-chlorobenzenesulfonamide-(3-pyridyl)methyl]phenyloxyacetate] | – | – | IC50 [6]: 96 µM; platelet aggregation inhibiting activity (in words) [6]: markedly high platelet aggregation inhibiting activity; IC50 (thromboxane synthetase [5]): 0.037 µM; thromboxane synthetase inhibiting activity (in words) (thromboxane synthetase [5]): excellent thromboxane synthetase inhibiting activity
O=C(O)COc1ccc(C(CCNS(=O)(=O)c2ccc(Cl)cc2)c2cccnc2)cc1 (stereo not shown) [Example 7, 4-[3-(4-chlorobenzenesulfonamido)-1-(3-pyridyl)propyl]phenyloxyacetic acid] | – | – | IC50 [6]: 30 µM; platelet aggregation inhibiting activity (in words) [6]: markedly high platelet aggregation inhibiting activity; thromboxane synthetase inhibiting activity (in words) (thromboxane synthetase [5]): excellent thromboxane synthetase inhibiting activity
O=C(O)c1ccc(CC(NS(=O)(=O)c2ccc(Cl)cc2)c2cccnc2)cc1 (stereo not shown) [Example 19] | 4.2 | 1 | –
O=C(O)CCc1ccc(CC(NS(=O)(=O)c2ccc(Cl)cc2)c2cccnc2)cc1 (stereo not shown) [Example 17, 3-{4-[2-(4-chlorobenzenesulfonamido)-2(3-pyridyl)ethyl]phenyl}propionic acid] | 1.8 | 30 | –
Cc1ccc(S(=O)(=O)NC(Cc2ccc(OCC(=O)O)cc2)c2cccnc2)cc1 (stereo not shown) [Example 11] | 1.9 | 21 | –
O=C(O)c1ccc(CCC(NS(=O)(=O)c2ccc(Cl)cc2)c2cccnc2)cc1 (stereo not shown) [Example 29, 4-[3-(4-chlorobenzenesulfonamido)-3-(3-pyridyl)propyl]benzoic acid] | 2 | 1.5 | –
O=C(O)Cc1ccc(CC(NS(=O)(=O)c2ccc(Cl)cc2)c2cccnc2)cc1 (stereo not shown) [Example 21, 4-[2-(4-chlorobenzenesulfonamido)-2-(3-pyridyl)ethyl]phenylacetic acid] | 0.68 | 2.2 | –
CCOC(=O)COc1ccc(C(CCNS(=O)(=O)c2ccc(Cl)cc2)Cc2cccnc2)cc1 (stereo not shown) [Example 9] | – | – | IC50 [6]: 5.1 µM; platelet aggregation inhibiting activity (in words) [6]: markedly high platelet aggregation inhibiting activity
CCOC(=O)Oc1ccc(CC(CNS(=O)(=O)c2ccc(Cl)cc2)c2cccnc2)cc1 (stereo not shown) [Example 27] | 52 | 28 | –
C/C(=C\c1ccc(CC(NS(=O)(=O)c2ccc(Cl)cc2)c2cccnc2)cc1)C(=O)O (stereo not shown) [Example 35] | – | – | IC50 [3]: 48 µM; platelet aggregation inhibiting activity (in words) [3]: markedly high platelet aggregation inhibiting activity
O=C(O)/C=C/c1ccc(CC(NS(=O)(=O)c2ccc(Cl)cc2)c2cccnc2)cc1 (stereo not shown) [Example 15, 4-[2-(4-chlorobenzenesulfonamido]-2-(3-pyridyl)ethyl]cinnamic acid] | 1.1 | 36 | –
O=C(O)COc1ccc(CCC(NS(=O)(=O)c2ccc(Cl)cc2)c2cccnc2)cc1 (stereo not shown) [Example 31, 4-[3-(4-chlorobenzenesulfonamido)-3-(3-pyridyl)propyl]phenoxyacetic acid] | 15 | 0.94 | –
C/C(=C\c1ccc(C(CNS(=O)(=O)c2ccc(Cl)cc2)Cc2cccnc2)cc1)C(=O)O (stereo not drawn) [Example 36, 4-[1-(4-chlorobenzenesulfonamido)-3-(3-pyridyl)-2-propyl]-α-methylcinnamic acid] | – | – | IC50 [3]: 71 µM; platelet aggregation inhibiting activity (in words) [3]: markedly high platelet aggregation inhibiting activity; IC50 (thromboxane synthetase [4]): 8.3 µM; thromboxane synthetase inhibiting activity (in words) (thromboxane synthetase [4]): excellent thromboxane synthetase inhibiting activity
